Reference: ChEMBL document CHEMBL4422644, “Synthesis and evaluation of α-aminoacyl amides as antitubercular agents effective on drug resistant tuberculosis” (Eur J Med Chem, 2019)
In brackets after ≈: the same amount, converted by molar mass.

Assays:
[1] = test system: Mycobacterium tuberculosis; assay: Antitubercular activity against Mycobacterium tuberculosis H37Rv after 7 days by alamar blue assay; assay type: functional; settings: 168 h
[2] = test system: CHO-K1; assay: Cytotoxicity against CHOK1 cells after 24 hrs by MTT assay; assay type: cell-based; settings: Cricetulus griseus, CHO-K1, 24 h
[3] = Selectivity index, ratio of IC50 for CHOK1 cells to MIC for Mycobacterium tuberculosis H37Rv; assay type: toxicity; settings: hamster, read-out: Selectivity Index
[4] = test system: A549; assay: Cytotoxicity against human A549 cells after 24 hrs by MTT assay; assay type: functional, cell-based; settings: A549, 24 h
[5] = test system: DU-145; assay: Cytotoxicity against human DU145 cells after 24 hrs by MTT assay; assay type: functional, cell-based; settings: DU-145, 24 h
[6] = test system: HeLa; assay: Cytotoxicity against human HeLa cells after 24 hrs by MTT assay; assay type: functional, cell-based
[7] = test system: HepG2; assay: Cytotoxicity against human HepG2 cells after 24 hrs by MTT assay; assay type: functional, cell-based; settings: HepG2, 24 h
[8] = test system: MCF7; assay: Cytotoxicity against human MCF7 cells after 24 hrs by MTT assay; assay type: functional, cell-based; settings: MCF7, 24 h
[9] = Cytotoxicity against […] B16 cells after 24 hrs by MTT assay; assay type: functional, cell-based; settings: B16, 24 h
[10] = Cytotoxicity against HEK cells after 24 hrs by MTT assay; assay type: cell-based; settings: Homo sapiens, HEK293, 24 h
[11] = test system: Escherichia coli; assay: Antibacterial activity against Escherichia coli ATCC 25922 after 24 hrs; assay type: functional; settings: ATCC 25922, 24 h
[12] = test system: Staphylococcus aureus; assay: Antibacterial activity against Staphylococcus aureus ATCC 29213 after 24 hrs; assay type: functional; settings: ATCC 29213, 24 h
[13] = test system: Pseudomonas aeruginosa; assay: Antibacterial activity against Pseudomonas aeruginosa ATCC 27853 after 24 hrs; assay type: functional; settings: ATCC 27853, 24 h
[14] = test system: Klebsiella pneumoniae; assay: Antibacterial activity against Klebsiella pneumoniae ATCC BAA-1705 after 24 hrs; assay type: functional; settings: ATCC BAA-1705, 24 h
[15] = test system: Acinetobacter baumannii; assay: Antibacterial activity against Acinetobacter baumannii ATCC BAA-1605 after 24 hrs; assay type: functional; settings: ATCC BAA-1605, 24 h
[16] = test system: Mycolicibacterium fortuitum; assay: Antibacterial activity against Mycobacterium fortuitum after 7 days by alamar blue assay; assay type: functional; settings: 168 h
[17] = test system: Mycobacteroides chelonae; assay: Antibacterial activity against Mycobacterium chelonae after 7 days by alamar blue assay; assay type: functional; settings: 168 h
[18] = test system: Mycobacteroides abscessus; assay: Antibacterial activity against Mycobacterium abscessus after 7 days by alamar blue assay; assay type: functional; settings: 168 h

SMILES | MIC [1] | MIC [11] | MIC [12] | MIC [13] | MIC [14] | MIC [15] | MIC [16] | MIC [17] | MIC [18] | other results
Cc1ccc(N(C(=O)c2sc(C)nc2C)C(C(=O)NC2CCCCC2)c2ccncc2)cc1 (stereo not given) | 12.5 µM (≈ 5.78 µg/mL) | > 50 µM | > 50 µM | > 50 µM | > 50 µM | > 50 µM | > 50 µM | > 50 µM | > 50 µM | IC50 [2]: 141 µM; selectivity ratio [3]: 11.3; IC50 [4]: 11.6 µM; IC50 [5]: 14.5 µM; IC50 [6]: 11 µM; IC50 [7]: 12 µM; IC50 [8]: 10.3 µM; IC50 [9]: 23.9 µM; IC50 [10]: 81.1 µM
COc1ccc(C(C(=O)NC2CCCCC2)N(C(=O)c2sc(C)nc2C)c2ccc(C)cc2)cc1 (stereo not given) | > 100 µM |  |  |  |  |  |  |  |  | 
Cc1ccc(N(C(=O)c2ccc[nH]2)C(C(=O)NC2CCCCC2)c2ccccc2)cc1 (stereo not given) | 25 µM (≈ 10.4 µg/mL) |  |  |  |  |  |  |  |  | 
Cc1cccc(N(C(=O)c2ccncc2)C(C(=O)NC2CCCCC2)c2ccncc2)c1C (stereo not given) | 25 µM (≈ 11.1 µg/mL) | > 50 µM | > 50 µM | > 50 µM | > 50 µM | > 50 µM | > 50 µM | > 50 µM | > 50 µM | 
Cc1cccc(C)c1N(C(=O)c1ccc[nH]1)C(C(=O)NC1CCCCC1)c1ccccc1 (stereo not given) | 25 µM (≈ 10.7 µg/mL) | > 50 µM | > 50 µM | > 50 µM | > 50 µM | > 50 µM | > 50 µM | > 50 µM | > 50 µM | 
Cc1ccc(N(C(=O)c2sc(C)nc2C)C(C(=O)NC2CCCCC2)c2ccccc2Cl)cc1 (stereo not given) | > 100 µM |  |  |  |  |  |  |  |  | 
Cc1cccc(N(C(=O)c2ccc[nH]2)C(C(=O)NC2CCCCC2)c2ccncc2)c1C (stereo not given) | 6.25 µM (≈ 2.69 µg/mL) | > 50 µM | > 50 µM | > 50 µM | > 50 µM | > 50 µM | > 50 µM | > 50 µM | > 50 µM | IC50 [2]: 142 µM; selectivity ratio [3]: 22.6; IC50 [4]: 15.8 µM; IC50 [5]: 10.8 µM; IC50 [6]: 13.1 µM; IC50 [7]: 8.95 µM; IC50 [8]: 5.85 µM; IC50 [9]: 16.6 µM; IC50 [10]: 108 µM
Cc1ccc(N(C(=O)c2sc(C)nc2C)C(C(=O)Nc2cccc3ccccc23)c2ccccc2)cc1 (stereo not given) | > 100 µM |  |  |  |  |  |  |  |  | 
Cc1ccc(N(C(=O)c2sc(C)nc2C)C(C(=O)NC2CCCCC2)c2cccc(C(F)(F)F)c2)cc1 (stereo not given) | 6.25 µM (≈ 3.31 µg/mL) |  |  |  |  |  |  |  |  | IC50 [2]: 42.7 µM; selectivity ratio [3]: 6.8; IC50 [4]: 13.9 µM; IC50 [5]: 11.8 µM; IC50 [6]: 16.4 µM; IC50 [7]: 8.14 µM; IC50 [8]: 5.7 µM; IC50 [9]: 11.6 µM; IC50 [10]: 59.8 µM
Cc1nc(C)c(C(=O)N(c2ccccc2)C(C(=O)NC2CCCCC2)c2cccc(Cl)c2)s1 (stereo not given) | > 100 µM |  |  |  |  |  |  |  |  | 
Cc1ccc(N(C(=O)c2ccc[nH]2)C(C(=O)NC2CCCCC2)c2ccncc2)cc1 (stereo not given) | 25 µM (≈ 10.4 µg/mL) | > 50 µM | > 50 µM | > 50 µM | > 50 µM | > 50 µM | > 50 µM | > 50 µM | > 50 µM | 
C[C@H]1COc2c(N3CCN(C)CC3)c(F)cc3c(=O)c(C(=O)O)cn1c23 [LEVOFLOXACIN] |  | < 0.03 µM | 0.25 µM (≈ 0.0903 µg/mL) | 1 µM (≈ 0.361 µg/mL) | 64 µM (≈ 23.1 µg/mL) | 8 µM (≈ 2.89 µg/mL) | < 0.03 µM | 0.25 µM (≈ 0.0903 µg/mL) | 64 µM (≈ 23.1 µg/mL) | 
CCc1ccccc1N(C(=O)c1sc(C)nc1C)C(C(=O)NC1CCCCC1)c1ccccc1 (stereo not given) | 25 µM (≈ 11.9 µg/mL) | > 50 µM | > 50 µM | > 50 µM | > 50 µM | > 50 µM | > 50 µM | > 50 µM | > 50 µM | 
Cc1cccc(N(C(=O)c2cnc3ccccc3c2)C(C(=O)NC2CCCCC2)c2ccccc2)c1C (stereo not given) | > 100 µM |  |  |  |  |  |  |  |  | 
Cc1nc(C)c(C(=O)N(c2ccccc2)C(C(=O)NC2CCCCC2)c2ccc(C(F)(F)F)cc2)s1 (stereo not given) | > 100 µM |  |  |  |  |  |  |  |  | 
Cc1nc(C)c(C(=O)N(c2ccccc2)C(C(=O)NC2CCCCC2)c2cccc(C(F)(F)F)c2)s1 (stereo not given) | > 100 µM |  |  |  |  |  |  |  |  | 
Cc1nc(C)c(C(=O)N(c2cnc3ccccc3c2)C(C(=O)NC2CCCCC2)c2ccccc2)s1 (stereo not given) | > 100 µM |  |  |  |  |  |  |  |  | 
Cc1nc(C)c(C(=O)N(c2cccc(C)c2C)C(C(=O)NC(C)(C)C)c2ccccc2)s1 (stereo not given) | > 100 µM |  |  |  |  |  |  |  |  | 

SMILES | MIC [1] | MIC [11] | MIC [12] | MIC [13] | MIC [14] | MIC [15] | MIC [16] | MIC [17] | MIC [18] | other results
Cc1cccc(N(C(=O)c2ccnc(Cl)c2)C(C(=O)NC2CCCCC2)c2ccccc2)c1C (stereo not given) | > 100 µM |  |  |  |  |  |  |  |  | 
Cc1cccc(N(C(=O)c2c(C)noc2C)C(C(=O)NC2CCCCC2)c2ccncc2)c1C (stereo not given) | 25 µM (≈ 11.5 µg/mL) | > 50 µM | > 50 µM | > 50 µM | > 50 µM | > 50 µM | > 50 µM | > 50 µM | > 50 µM | 
Cc1ccc(N(C(=O)c2sc(C)nc2C)C(C(=O)NC(C)(C)C)c2ccccc2)cc1 (stereo not given) | > 100 µM |  |  |  |  |  |  |  |  | 
Cc1cc(C)cc(N(C(=O)c2sc(C)nc2C)C(C(=O)NC2CCCCC2)c2ccccc2)c1 (stereo not given) | > 100 µM |  |  |  |  |  |  |  |  | 
Cc1cccc(N(C(=O)c2ccco2)C(C(=O)NC2CCCCC2)c2ccccc2)c1C (stereo not given) | > 100 µM |  |  |  |  |  |  |  |  | 
Cc1ccc(N(C(=O)c2ccncc2)C(C(=O)NC2CCCCC2)c2cccnc2)cc1 (stereo not given) | 25 µM (≈ 10.7 µg/mL) | > 50 µM | > 50 µM | > 50 µM | > 50 µM | > 50 µM | > 50 µM | > 50 µM | > 50 µM | 
Cc1ccc(N(C(=O)c2ccncc2)C(C(=O)NC2CCCCC2)c2ccncc2)cc1 (stereo not given) | 25 µM (≈ 10.7 µg/mL) |  |  |  |  |  |  |  |  | 
Cc1ccc(N(C(=O)c2sc(C)nc2C)C(C(=O)NC2CCCCC2)c2ccc(C(F)(F)F)cc2)cc1 (stereo not given) | > 100 µM |  |  |  |  |  |  |  |  | 
Cc1nc(C)c(C(=O)N(c2ccc(C)c(C)c2)C(C(=O)NC2CCCCC2)c2ccccc2)s1 (stereo not given) | > 100 µM |  |  |  |  |  |  |  |  | 
Cc1cccc(N(C(=O)c2ccc(Br)o2)C(C(=O)NC2CCCCC2)c2ccccc2)c1C (stereo not given) | > 100 µM |  |  |  |  |  |  |  |  | 
COc1cccc2c1C(=O)c1c(O)c3c(c(O)c1C2=O)C[C@@](O)(C(=O)CO)C[C@@H]3O[C@H]1C[C@H](N)[C@H](O)[C@H](C)O1 [DOXORUBICIN] |  |  |  |  |  |  |  |  |  | IC50 [4]: 0.55 µM; IC50 [5]: 0.363 µM; IC50 [6]: 0.8 µM; IC50 [7]: 0.72 µM; IC50 [8]: 2 µM; IC50 [9]: 0.7 µM; IC50 [10]: 0.01 µM
COc1ccc(C(C(=O)NC2CCCCC2)N(C(=O)c2sc(C)nc2C)c2ccccc2)cc1 (stereo not given) | > 100 µM |  |  |  |  |  |  |  |  | 
Cc1nc(C)c(C(=O)N(c2ccccc2O)C(C(=O)NC2CCCCC2)c2ccccc2)s1 (stereo not given) | 25 µM (≈ 11.6 µg/mL) | > 50 µM | > 50 µM | > 50 µM | > 50 µM | > 50 µM | > 50 µM | > 50 µM | > 50 µM | 
Cc1nc(C)c(C(=O)N(c2ccccc2)C(C(=O)NC2CCCCC2)c2ccccc2)s1 (stereo not given) | > 100 µM |  |  |  |  |  |  |  |  | 
Cc1ccc(N(C(=O)c2sc(C)nc2C)C(C(=O)NC(C)(C)C)c2ccccc2)c(C)c1 (stereo not given) | > 100 µM |  |  |  |  |  |  |  |  | 
Cc1nc(C)c(C(=O)N(c2c(C)cccc2C)C(C(=O)NC2CCCCC2)c2ccccc2)s1 (stereo not given) | 25 µM (≈ 11.9 µg/mL) | > 50 µM | > 50 µM | > 50 µM | > 50 µM | > 50 µM | > 50 µM | > 50 µM | > 50 µM | 
Cc1ccc(C)c(N(C(=O)c2sc(C)nc2C)C(C(=O)NC2CCCCC2)c2ccccc2)c1 (stereo not given) | > 100 µM |  |  |  |  |  |  |  |  | 
